This note sets out measurements from patent publication US20220110902A1, “Methods of treating amyloid-beta peptide diseases” (Ecole Polytechnique Federale de Lausanne, priority 2016, published 2022).

Entries after “also recorded” stand apart in the source; their conditions may differ.

Assay [1] relates to GMC101 worms. Kind of assay: Transcript analysis of the MSR and other stress pathways in GMC101 worms. Type of assay: in vivo, C. elegans. As to conditions: for UPR^er and HSR gene transcripts: AZD 0.3 μM; for MSR transcripts (UPR^mt, mitophagy and respiration genes): AZD 300 nM. The procedure: C. elegans: A total of ˜3000 worms per condition, divided in 3 biological replicates, was recovered in M9 buffer from NGM plates and lysed in the TriPure RNA reagent. Each experiment was repeated twice. Total RNA was transcribed to cDNA using QuantiTect Reverse Transcription Kit (Qiagen). Expression of selected genes was analyzed using the LightCycler480 system (Roche) and LightCycler® 480 SYBR Green I Master reagent (Roche). For C. elegans, 2 housekeeping genes were used to normalize the expression data, namely actin (act-1) and peroxisomal membrane protein 3 (pmp-3).
atfs-1p::atfs-1 expression vector was created by amplifying 1488 bp sequence upstream from the transcription start site of atfs-1 coding region by using worm genomic DNA for the promoter region. The PCR product was digested with PciI and AgeI and ligated into the pPD30.38 expression vector containing gfp coding sequence cloned between inserted AgeI and NotI restriction sites. The atfs-1 coding sequence (CDS) was instead amplified using C. elegans cDNA, and the PCR product was inserted into pPD30.38 downstream of the promoter region, between AgeI and NheI restriction sites. The correctness of the atfs-1p::atfs-1 construct was assessed by sequencing with the indicated pPD30.38 and atfs-1 seq. primers. Two independent GMC101 lines (AUW9 and AUW10), and one CL2122 strain (AUW11) carrying atfs-1p::atfs-1 transgene as extrachromosomal array were analyzed in the study. Injection marker myo-2p::gfp was cloned by amplifying 1179 bp sequence upstream from the transcription start site of myo-2 coding region by using C. elegans genomic DNA. The PCR product was digested with PciI and AgeI and ligated into the pPD30.38 expression vector containing atfs-1::gfp to replace atfs-1 promoter sequence between PciI and AgeI restriction sites. All transgenic strains were created by using microinjection. For the generation of the GMC101 lines AUW12 and AUW13, GMC101 males were generated after exposure of L4 worms to 30° C. for 3 h, and let mate with L4 from clk-1 or nuo-6 mutant strains. The derived progeny was selected for homozygosis of the GMC101 intestinal GFP marker for few generations, and the homozygosis of the clk-1 or nuo-6 mutant alleles verified by amplifying and sequencing a 500 bp region of the worms genomic DNA encompassing the desired mutation. Bacterial feeding RNAi experiments were carried out as described. Clones used were atfs-1 (ZC376.7), ubl-5 (F46F11.4), mrps-5 (E02A10.1), dct-1 (C14F5.1), daf-16 (R13H8.1), sir-2.1 (R11A8.4), xbp-1 (R74.3) and hsf-1 (Y53C10A.12). Clones were purchased from GeneService and verified by sequencing. The novel atfs-1 RNAi construct (atfs-1 #2) used in this study was generated by amplifying 1400 bp of the atfs-1 genomic DNA sequence, starting from the last exon of atfs-1. Gateway cloning (Thermo Scientfic) was used to insert the PCR product into the gateway vector pL4440gtwy (Addgene #11344), and verified by sequencing. atfs-1 knockdown was verified by qPCR for all the atfs-1 RNAi constructs used herein. For phenotypic studies (see below), worms at the L4 larval stage were allowed to reach adulthood and lay eggs on the treatment plates. The deriving F1 worms were shifted from 20° C. to 25° C. at the L4 stage to induce amyloid accumulation and paralysis, and phenotypes assessed over time as indicated. For double RNAi experiments, we used a combination of atfs-1 with mrps-5 RNAi constructs as indicated in the text, with 80% amount of atfs-1 and 20% mrps-5 RNAi. For mRNA analysis, synchronized L1 worms were exposed to the treatment plates, and shifted from 20° C. to 25° C. when reaching the L4 stage. After 24 hours incubation at 25° C., corresponding to day 1 of adulthood, they were harvested in M9 for analysis.
Doxycycline was obtained from Sigma-Aldrich and dissolved in water. For experiments, a final concentration of 15 μg/mL was used. Olaparib (AZD2281) was dissolved in DMSO to experimental concentrations of 300 nM. […]

Assay [2] concerns GMC101 worms. Kind of assay: Western-blot of amyloid aggregation in GMC101 worms. Format: in vivo, C. elegans. As to conditions: for Aβ aggregation (proteotoxic stress): GMC101, day 1 of adulthood, dox 15 μg/mL, NR 1 mM, AZD 300 nM. On the procedure:
C. elegans: Worms were lysed by sonication with RIPA buffer containing protease and phosphatase inhibitors (Roche), and analyzed by SDS-PAGE and western blot. The concentration of extracted protein was determined by using the Bio-Rad Protein Assay. Proteins were detected using the following antibodies: anti-β-actin (Sigma), anti-tubulin (Santa Cruz), atp-5, ucr-1 (Oxphos cocktail, Abcam), anti-β-Amyloid, 1-16 (6E10) (BioLegend). In addition to the housekeeping proteins, loading was monitored by Ponceau Red to ensure a homogeneous loading. Pixel intensity was quantified by using ImageJ software. Each immunoblot experiment was repeated at least twice using 3 biological replicates each containing approximately 1000 worms.
During the assays, animals were exposed to Myriocin (dissolved in DMSO) from the egg stage on plates seeded with live HT115 E. coli bacteria. Control plates seeded with the same bacteria were prepared with the corresponding concentrations of DMSO. The day of the experiment (day 1 of adulthood, 3 days after hatching), the GMC101 population was shifted to 25° C. in order to induce the amyloid deposition in the body wall muscle. ˜1000 worms were used for western blotting assays.
Worms were lysed by sonication with RIPA buffer containing protease and phosphatase inhibitors (Roche), and analyzed by western blot. The concentration of extracted protein was determined by the Bio-Rad Protein Assay. Proteins were detected using the following antibodies: anti-β-actin (Sigma) and anti-β-Amyloid (BioLegend). In addition to the housekeeping proteins, loading was monitored by Ponceau Red to ensure a homogeneous loading. The immunoblot experiment employed 3 biological replicates, each containing approximately 1000 worms.
Worms were lysed by sonication with RIPA buffer containing protease and phosphatase inhibitors (Roche), and analyzed by western blot. The concentration of extracted proteins was determined by the Bio-Rad Protein Assay. Proteins were detected using the following antibodies: anti-β-actin (Sigma) and anti-β-Amyloid (BioLegend). In addition to the housekeeping proteins, loading was monitored by Ponceau Red to ensure a homogeneous loading. The immunoblot experiment employed 3 biologicals replicates, each containing approximately 1000 worms.
The GMC101 worms were recovered 24 h after being shifted at 25° C. The population was treated with UA at two different concentrations, ie 20 uM and 50 uM.

[3] abbreviates: GMC101, day 1 of adulthood, dox 15 μg/mL, NR 1 mM.

With `O=C(c1cc(Cc2n[nH]c(=O)c3ccccc23)ccc1F)N1CCN(C(=O)C2CC2)CC1` [AZD, Olaparib, reference compound], in assay [1] (setting [3]), the “UPR^er and HSR gene transcripts” value was “only a minimal impact”; the “MSR transcripts (UPR^mt, mitophagy and respiration genes)” value is on record as “induced the MSR”. In addition, in assay [2], the “Aβ aggregation (proteotoxic stress)” value is given as “reduced proteotoxic stress”.
For the compound `CCCCCCC(=O)CCCCCC/C=C/C[C@@H](O)[C@H](O)[C@@](N)(CO)C(=O)O` [Myriocin, (E,2S,3R,4R)-2-amino-3,4-dihydroxy-2-(hydroxymethyl)-14-oxoicos-6-enoic acid], in assay [1] (GMC101, myriocin 5 uM and 10 uM), the “oxidative stress and mitochondrial stress response genes (sod-2, sod-4, atfs-1, skn-1)” value is on record as “induction”. Besides, the “UPR^mt and mitophagy genes (hsp-6, hsp-60, dct-1, pdr-1)” value in assay [1] (GMC101, myriocin treatment) is “upregulation”. Moreover, in assay [2] (GMC101, Day 1 of adulthood, Myriocin 5 uM and 10 uM), the “accumulation of amyloid-β aggregates” value was “dose-dependently decreased; also recorded: dose-dependent reduction”.
Consider `NC(=O)c1ccc[n+]([C@@H]2O[C@H](CO)[C@@H](O)[C@H]2O)c1` [NR, Nicotinamide Riboside triflate], for which, in assay [1] (setting [3]), the “daf-16 and daf-16 target gene transcripts” value is “did not affect”; the “UPR^er and HSR gene transcripts” value was “only a minimal impact”; the “MSR transcripts (UPR^mt, mitophagy and respiration genes)” value is given as “induced the MSR”. In addition, in assay [2], the “Aβ aggregation (proteotoxic stress)” value is given as “reduced proteotoxic stress”.
